Consider three molecules from US5041653A, “Substituted benzamide radiosensitizers” (SRI International, priority 1990, dated 1991).

One series relates to EMT6 tumors. Nature of the series: In vivo assay for radiosensitization activity (EMT6 tumors in female BALB/c mice, survival of dissected and cultured tumor cells, compared with MIS). The following applies: for sensitizer enhancement ratio: at a 1-2 mM concentration, comparable to that for MIS; for Radiosensitization (score 0 to 4 vs MIS): EMT6 tumors, BALB/c mice, 5 mmole/kg or 2/3 of LD50 ip, 2,000 rad at 5 min to 2 hr after injection. Further details: key to Radiosensitization (score 0 to 4 vs MIS): 0: No radiosensitization; 1: Minimal radiosensitization (some radiosensitization relative to controls but lowest survival>3×lowest survival with MIS); 2: Moderate radiosensitization (not good as MIS, but lowest surviving fraction<3×lowest surviving fraction with MIS); 3: Good radiosensitization (equal to MIS); 4: Excellent radiosensitization (superior to MIS). The protocol:
The compounds of the invention are tested in vivo for radiosensitization activity by the assay of Brown, J. M., Radiation Res (1975) 64:633-47, incorporated herein by reference. For this assay EMT6 tumors in female BALB/c mice weighing 20-25 g are used. These mice are bred under specific pathogen-free conditions and are 3-4 months old at the beginning of each experiment. The EMT6 tumor is grown intradermally in the flank from an inoculation of 2×10^5 tumor cells taken from the 2nd-8th in vitro passage of the tumor cells since removal from the previous in vivo tumor. Two tumors per mouse are implanted, and are used as subject tumors when they reach a volume of approximately […]. At this point the tumors contain approximately 20% hypoxic cells.
Test compounds are compared against MIS in this assay. The test compound is tested at a fixed injected dose of either 5 mmole/kg or 2/3 of the LD50 (whichever is lower), MIS is injected into controls at the same dose. Additional suitable controls of test compound-injected but non-irradiated and saline-injected and irradiated mice are also included. A fixed radiation dose of 2,000 rad is applied at variable intervals of 5 min to 2 hr between injection and irradiation. Typically, irradiation is applied at 5, 10, 15, 20, 30, 45, 60, 90, and 120 min following intraperitoneal administration of both drugs. By using these intervals, the results give an indication of both the optimum time to irradiate and of how the test compound sensitizes in relationship to MIS.
Irradiation of the EMT6 tumors is done by irradiating nonanesthetized tumor-bearing mice in a Plexiglas box. Irradiation conditions are 250 kVp X-rays, 15 mA, FSC 33 cm, added filtration of 0.35 mm Cu, half value layer 1.3 mm Cu, and a dose rate of 317 rad/min.
Radiosensitization activity is judged by survival rate of dissected and cultured tumor cells as follows: The tumor-bearing mice are killed immediately after irradiation, and tumors dissected from the skin, cut into several pieces, and made into a fine brei by high-speed chopping with a razor blade attached to a jigsaw. The brei is added to 30 ml of Hank's buffered salt solution (HBSS) containing 0.02% DNase, 0.05% promase, and 0.02% collagenase. The suspension is stirred for 30 min at 37° C., filtered, and centrifuged at 1,600 rmp for 10 min at 4° C. The cell pellet is resuspended in complete Waymouth's medium plus 121/2% horse serum plus 2-12% fetal calf serum (FCS) and an aliquot mixed with trypan blue and counted with the use of a hemacytometer. Suitable dilutions of this […] plated into 60- or 100-mm polystyrene petri dishes (Lux Scientific Corp) in 5 or 15 ml of medium. After incubation for 13 days, the colonies are fixed and stained, and those containing 50 cells or more are counted. The dilution yielding an average count of 25-100 colonies in a 60 mm dish is used in calculation of results.
The test compound is scored on the scale of 0 to 4 based on how it compares with MIS. The scoring system is:
1: Minimal radiosensitization (some radiosensitization relative to controls but lowest survival>3×lowest survival with MIS)
2: Moderate radiosensitization (not good as MIS, but lowest surviving fraction<3×lowest surviving fraction with MIS)
3: Good radiosensitization (equal to MIS)

Series [1] is described as follows: Cytotoxicity test (% cell survival, hypoxic HA-1 cells). The following applies: chinese hamster, ha-1 cells, hypoxic, 10 mM test compound, 1 hr at 22° C., hypoxia (N2 containing 5% CO2). The class given is cell-based, Chinese hamster. The protocol:
(§1) Cytotoxicity tests were also carried out on each of the compounds. The test procedure was as follows: Log-phase Chinese hamster ovary HA-1 cells were trypsinized (0.5% trypsin in Hank's buffered salt solution (HBSS)) and plated in 60 mm Permanox petri dishes in concentrations necessary to yield approximately 30 colonies after experimental treatment. The cells were allowed to attach overnight. Then the medium was removed from each dish and replaced with 2 ml of medium containing varying concentrations of the test compound. The petri dishes were then placed in nylon chamber fitted with gassing ports and, to achieve hypx=oxia, were gassed at room temperature with humidified N2 containing 5% CO2 for 1 hr at a rate of 1 l/min. The cells are then exposed to 10 mM of the test compound for 1 hr at 22° C. The % cell survival is read after such treatment.

Series [2] concerns Chinese hamster ovary HA-1 cells. The description is as above. The following applies: 10 mM test compound, 1 hr at 22° C., hypoxia (N2 containing 5% CO2), 60 min, 10000 µM. The class given is cell-based. On the procedure: as §1

Regarding `CC(=O)OCCOc1cccc(C(N)=O)c1` [3-(2-acetoylethoxy)benzamide, 3-(2-Acetoxyethoxy)benzamide], in the series with EMT6 tumors, the sensitizer enhancement ratio was 1.6.

For the molecule `NC(=O)c1cccc(OCCO)c1` [3-(2-hydroxyethoxy)benzamide], in the series with EMT6 tumors, the “Radiosensitization (score 0 to 4 vs MIS)” value was 3 and the sensitizer enhancement ratio was 1.6. In series [1], the viability at 1 h, 10000 µM worked out at 89%.

On to `NC(=O)c1cccc(O)c1` [3-hydroxybenzamide], for which, in the series on EMT6 tumors, the “Radiosensitization (score 0 to 4 vs MIS)” value is listed as 3 and the sensitizer enhancement ratio is given as 1.6. In addition, the viability at 1 h, 10000 µM in series [1] was 90%. In addition, in series [2], the “Cytotoxicity % Cell Survival” value stood at 77%.
